Laboratory results taken from patent publication US10660967B2, “Curcumin conjugates and methods of use thereof” (priority 2016, dated 2020).

Tested on: carrageenan induced paw edema
Experiment: Anti-inflammatory activity: acute carrageenan induced paw edema in rats
Format: in vivo, Wister rats
Conditions: 10 mg kg^−1 indomethacin mol equivalent; for % inhibition of edema / Mean edema thickness: intraperitoneally; for Mean edema thickness: mean ± SE; for Potency (% inhibition of edema relative to that of indomethacin reference standard): at 4 h effect
Procedure, shortened: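 Wistar rats (120–150 g, n=6/group) received subplantar 1% carrageenan in the right hind paw, and DMSO-vehicle animals served as controls. Results are given as % inhibition of edema thickness versus control.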

Compound	% inhibition of edema (1 h) [%]	Mean edema thickness (1 h) [mm]	% inhibition of edema (2 h) [%]	Mean edema thickness (2 h) [mm]	% inhibition of edema (3 h) [%]	Mean edema thickness (3 h) [mm]	% inhibition of edema (4 h) [%]	Mean edema thickness (4 h) [mm]	% inhibition of edema (24 h) [%]	Mean edema thickness (24 h) [mm]	Potency (% inhibition of edema relative to that of indomethacin reference standard)
COc1cc(/C=C/C(=O)CC(=O)/C=C/c2ccc(OC(=O)[C@H](CCSC)NC(=O)OC(C)(C)C)c(OC)c2)ccc1OC(=O)[C@H](CCSC)NC(=O)OC(C)(C)C [Compound 28]	34	1.59 ± 0.21	36	1.31 ± 0.18	44	1.01 ± 0.17	88	0.17 ± 0.02	23	0.64 ± 0.05	101
COc1cc(/C=C/C(=O)CC(=O)/C=C/c2ccc(OC(=O)[C@H](C)N)c(OC)c2)ccc1OC(=O)[C@H](C)N.Cl.Cl [Compound 35]	37	1.51 ± 0.12	42	1.19 ± 0.10	53	0.85 ± 0.09	66	0.47 ± 0.04	16	0.70 ± 0.06	76
CC(C)Cc1ccc(C(C)C(=O)O)cc1 (centres unmarked) [Compound 3]	20	1.93 ± 0.21	60	0.82 ± 0.13	65	0.63 ± 0.09	79	0.29 ± 0.01	14	0.71 ± 0.04	
COc1cc(/C=C/C(=O)CC(=O)/C=C/c2ccc(OC(=O)[C@H](Cc3c[nH]c4ccccc34)NC(=O)OCc3ccccc3)c(OC)c2)ccc1OC(=O)[C@H](Cc1c[nH]c2ccccc12)NC(=O)OCc1ccccc1 [Compound 12]	37	1.52 ± 0.27	28	1.48 ± 0.22	24	1.36 ± 0.26	12	1.23 ± 0.19	1	0.82 ± 0.17	14
COc1cc(/C=C/C(=O)CC(=O)/C=C/c2ccc(OC(=O)C(C)N)c(OC)c2)ccc1OC(=O)C(C)N.Cl.Cl (centres unmarked) [Compound 36]	54	1.11 ± 0.08	54	0.94 ± 0.09	55	0.81 ± 0.05	84	0.22 ± 0.02	28	0.60 ± 0.06	97
COc1cc(/C=C/C(=O)CC(=O)/C=C/c2ccc(OC(=O)[C@@H](C)NC(=O)OCc3ccccc3)c(OC)c2)ccc1OC(=O)[C@@H](C)NC(=O)OCc1ccccc1 [Compound 19]	82	0.43 ± 0.08	89	0.23 ± 0.04	95	0.09 ± 0.03	100	0.00 ± 0.00	49	0.42 ± 0.06	115
COc1cc(/C=C/C(=O)CC(=O)/C=C/c2ccc(OC(=O)[C@H](CCSC)NC(=O)OCc3ccccc3)c(OC)c2)ccc1OC(=O)[C@H](CCSC)NC(=O)OCc1ccccc1 [Compound 10]	76	0.58 ± 0.15	80	0.41 ± 0.11	86	0.25 ± 0.08	88	0.17 ± 0.02	94	0.05 ± 0.01	101
COc1cc(/C=C/C(=O)CC(=O)/C=C/c2ccc(OC(=O)[C@H](C)NC(=O)OCc3ccccc3)c(OC)c2)ccc1OC(=O)[C@H](C)NC(=O)OCc1ccccc1 [Compound 6]	56	1.05 ± 0.24	23	1.59 ± 0.21	22	1.40 ± 0.19	12	1.23 ± 0.25	0	0.83 ± 0.17	14
COc1cc(/C=C/C(=O)CC(=O)/C=C/c2ccc(OC(=O)[C@@H](C)N)c(OC)c2)ccc1OC(=O)[C@@H](C)N.Cl.Cl [Compound 37]	61	0.95 ± 0.11	62	0.79 ± 0.13	74	0.46 ± 0.09	96	0.06 ± 0.01	29	0.59 ± 0.07	110
COc1cc(/C=C/C(=O)CC(=O)/C=C/c2ccc(OC(=O)[C@@H](NC(=O)OCc3ccccc3)C(C)C)c(OC)c2)ccc1OC(=O)[C@@H](NC(=O)OCc1ccccc1)C(C)C [Compound 8]	51	1.17 ± 0.26	20	1.65 ± 0.23	19	1.45 ± 0.20	12	1.23 ± 0.19	2	0.81 ± 0.11	14
COc1cc(/C=C/C(=O)CC(=O)/C=C/c2ccc(OC(=O)[C@H](C)NC(=O)OC(C)(C)C)c(OC)c2)ccc1OC(=O)[C@H](C)NC(=O)OC(C)(C)C [Compound 24]	6	2.26 ± 0.20	11	1.84 ± 0.17	20	1.44 ± 0.14	28	1.04 ± 0.18	5	0.79 ± 0.17	32
COc1cc(/C=C/C(=O)CC(=O)/C=C/c2ccc(OC(=O)C(C)NC(=O)OCc3ccccc3)c(OC)c2)ccc1OC(=O)C(C)NC(=O)OCc1ccccc1 (centres unmarked) [Compound 7]	72	0.67 ± 0.09	87	0.26 ± 0.07	97	0.05 ± 0.02	100	0.00 ± 0.00	100	0.00 ± 0.00	115
